Laboratory results: patent US10793547B2, “Modulator of the cystic fibrosis transmembrane conductance regulator, pharmaceutical compositions, methods of treatment, and process for making the modulator” (Vertex Pharmaceuticals Incorporated, priority 2016, dated 2020)

Tests used:
[1] = target: T1, F508del-CFTR (Homo sapiens, UniProt P13569, DEL508-508); experiment: Membrane potential optical (FLIPR) assay for F508del-CFTR modulators in NIH 3T3 cells; format: cell-based; conditions: NIH 3T3 cells expressing F508del; assay A1; read-out: CFTRdF508 Cor 3T3 FLIPR 384 CFTRdF508 MP 3T3 770 EC50
T1 construct: expressed in transfected cells
Procedure, shortened: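 NIH3T3 mouse fibroblasts stably expressing F508del, seeded on matrigel and cultured 18-24 h at 37 °C; for correction, cells were cultured with or without compound for 18-24 h. Cells were loaded with voltage-sensing dye, then compound was added in one step with a chloride gradient (chloride replaced by gluconate). Membrane potential was read by fluorescence.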

[2] = target: T2, human PXR (Homo sapiens, UniProt O75469); experiment: PXR assay: PXR mediated CYP3A4 induction in DPX-2 cell line; format: cell-based; conditions: DPX-2 cells
T2 construct: host or cells: DPX-2 cell line (derived from HepG2)
T2 sequence (O75469 1-434): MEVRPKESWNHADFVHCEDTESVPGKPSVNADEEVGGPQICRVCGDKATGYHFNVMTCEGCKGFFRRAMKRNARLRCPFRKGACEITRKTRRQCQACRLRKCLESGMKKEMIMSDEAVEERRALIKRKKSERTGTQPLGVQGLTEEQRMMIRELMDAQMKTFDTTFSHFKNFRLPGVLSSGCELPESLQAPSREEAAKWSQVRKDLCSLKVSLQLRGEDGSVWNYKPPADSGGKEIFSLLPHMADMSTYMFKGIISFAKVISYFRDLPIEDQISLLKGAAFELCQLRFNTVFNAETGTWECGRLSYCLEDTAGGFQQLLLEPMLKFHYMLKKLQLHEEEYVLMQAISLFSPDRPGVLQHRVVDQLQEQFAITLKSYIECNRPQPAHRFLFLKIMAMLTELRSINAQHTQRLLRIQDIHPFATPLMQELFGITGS
Procedure, shortened: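 HepG2-derived DPX-2 cells stably carrying human PXR and a CYP3A4 promoter/enhancer–luciferase reporter; 11 doses from 0.1 to 60 μM for 48 h, rifampicin as positive control. Viability read by fluorescence, then luciferase luminescence; max fold induction over vehicle and EC50 reported.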

[3] = MDCK-Wild Type permeability, 96 well + 0.1% BSA; format: in vitro ADME; conditions: dog, MDCK, A-B direction, read-out: MDCK-Wild Type-Permeability 96 well + 0.1% BSA Papp compound (A-B)
[4] = test system: Rat hepatocytes; experiment: Hepatocyte clearance, rat hepatocytes; format: in vitro ADME; conditions: percent unchanged
[5] = Rat IV and PO PK studies; format: in vivo, male Sprague-Dawley rats; conditions: for RAT PLASMA-RAW IV-bolus CL_drg: nominal 3.0 mg/kg; for RAT PLASMA-RAW PO % F_drg / AUC(0-inf): nominal 3 mg/kg, PO; for AUC(0-inf): male, Sprague-Dawley, plasma, read-out: RAT PLASMA-RAW PO AUC (0-inf)_drg
Experimental: C. Experimental Protocol for Rat IV and PO PK Studies
The tested compound was administered to male Sprague-Dawley rats as a single nominal intravenous dose of 3.0 mg/kg as a solution in 10% NMP, 10% solution, 15% EtOH, 35% PEG400 and 30% D5W. The tested compound was also administered to male Sprague-Dawley rats at single nominal oral dose of 3 mg/kg as a solution in 5% NMP, 30% PEG400, 10% TPGS, 5% PVP-K30 at 5 mL/kg dose volume. Analyses of plasma and dose preparations were performed using LC/MS/MS.
Plasma concentration-time profiles of the tested compound in Sprague-Dawley rats at scheduled (nominal) sampling times were analyzed by noncompartmental pharmacokinetic methods using PK function within Watson LIMS software, Version 7.4.2 (Thermo Scientific Inc, Waltham, Mass.). AUC values were calculated using the linear trapezoidal rule.

[6] = Metabolism of Compound 1 in vitro and in vivo

T1 sequence (P13569 with tags, fused parts or gaps DEL508-508): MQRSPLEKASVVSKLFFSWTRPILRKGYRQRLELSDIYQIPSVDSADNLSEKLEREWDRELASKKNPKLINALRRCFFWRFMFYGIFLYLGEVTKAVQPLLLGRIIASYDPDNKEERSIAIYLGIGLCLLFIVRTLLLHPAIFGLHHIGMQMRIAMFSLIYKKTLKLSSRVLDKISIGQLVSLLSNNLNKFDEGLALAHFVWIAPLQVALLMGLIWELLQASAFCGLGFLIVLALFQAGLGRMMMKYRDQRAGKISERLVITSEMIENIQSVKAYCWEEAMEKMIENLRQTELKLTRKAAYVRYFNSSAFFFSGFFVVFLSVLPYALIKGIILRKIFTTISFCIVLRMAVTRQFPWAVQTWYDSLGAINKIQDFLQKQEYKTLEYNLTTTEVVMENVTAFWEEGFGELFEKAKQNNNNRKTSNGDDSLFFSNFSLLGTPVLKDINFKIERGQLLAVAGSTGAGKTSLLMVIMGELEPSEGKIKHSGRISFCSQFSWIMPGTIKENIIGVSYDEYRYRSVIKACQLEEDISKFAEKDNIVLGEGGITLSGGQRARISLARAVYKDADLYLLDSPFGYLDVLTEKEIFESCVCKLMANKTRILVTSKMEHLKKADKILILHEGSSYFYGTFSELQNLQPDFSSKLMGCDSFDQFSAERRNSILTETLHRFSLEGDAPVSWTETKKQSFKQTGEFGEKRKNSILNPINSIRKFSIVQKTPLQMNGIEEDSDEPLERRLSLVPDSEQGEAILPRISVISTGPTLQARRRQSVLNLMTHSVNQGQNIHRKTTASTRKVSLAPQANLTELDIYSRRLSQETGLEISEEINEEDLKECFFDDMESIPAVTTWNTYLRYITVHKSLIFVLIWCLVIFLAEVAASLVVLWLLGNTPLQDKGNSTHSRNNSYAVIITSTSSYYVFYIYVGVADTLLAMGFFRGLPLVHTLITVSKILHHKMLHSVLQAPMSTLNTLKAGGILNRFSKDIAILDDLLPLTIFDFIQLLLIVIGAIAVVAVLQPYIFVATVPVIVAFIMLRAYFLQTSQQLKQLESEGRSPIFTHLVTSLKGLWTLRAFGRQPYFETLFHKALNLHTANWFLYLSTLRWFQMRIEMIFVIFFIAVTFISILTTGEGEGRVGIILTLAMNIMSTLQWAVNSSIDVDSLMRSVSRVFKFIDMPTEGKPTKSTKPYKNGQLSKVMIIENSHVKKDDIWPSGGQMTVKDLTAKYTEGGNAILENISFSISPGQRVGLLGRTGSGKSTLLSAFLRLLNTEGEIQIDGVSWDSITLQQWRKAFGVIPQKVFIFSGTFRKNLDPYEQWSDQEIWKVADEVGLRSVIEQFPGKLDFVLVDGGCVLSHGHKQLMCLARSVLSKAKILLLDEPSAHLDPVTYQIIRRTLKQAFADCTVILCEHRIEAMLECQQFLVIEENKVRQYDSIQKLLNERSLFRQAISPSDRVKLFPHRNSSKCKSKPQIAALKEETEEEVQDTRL

| EC50 [1] [nM] | CYP3A4 Induction-PXR human PXR internal Max % Activity [2] [%] | Papp A→B [3] [×10⁻⁶ cm/s] | Hepatocyte clearance-Rat Rat hepatocytes CL pct_unchanged [4] [%] | RAT PLASMA-RAW IV-bolus CL_drg [5] [mL/min/kg] | RAT PLASMA-RAW PO % F_drg [5] [%] | AUC(0-inf) [5] [ng·h/mL] | metabolite identity [6] | SMILES |
| --- | --- | --- | --- | --- | --- | --- | --- | --- |
| 130 | 3 | 2.7 | 97 | 2.5 | 66 | 16300 |  | Cc1nn(C)cc1S(=O)(=O)NC(=O)c1ccc(-n2ccc(OCCC3(C(F)(F)F)CC3)n2)nc1N1C[C@@H](C)CC1(C)C [Compound 15, N-(1,3-dimethylpyrazol-4-yl)sulfonyl-6-[3-[2-[1-(trifluoromethyl)cyclopropyl]ethoxy]pyrazol-1-yl]-2-[(4S)-2,2,4-trimethylpyrrolidin-1-yl]pyridine-3-carboxamide] |
| 90 | 4 | 2.2 | 41 | 1.8 | 80 | 7100 |  | Cc1nn(C)cc1S(=O)(=O)NC(=O)c1ccc(-n2ccc(OCC3C4(CC4)C34CC4)n2)nc1N1C[C@@H](C)CC1(C)C [Compound 28, (S)—N-((1,3-Dimethyl-1H-pyrazol-4-yl)sulfonyl)-6-(3-(dispiro[2.0.2.1]heptan-7-ylmethoxy)-1H-pyrazol-1-yl)-2-(2,2,4-trimethylpyrrolidin-1-yl)nicotinamide] |
| 560 | 9 | 1.2 | 49 |  |  |  | metabolites of Compound 1 | Cc1nn(C)cc1S(=O)(=O)NC(=O)c1ccc(-n2ccc(OCC(C)(CO)C(F)(F)F)n2)nc1N1C[C@@H](C)CC1(C)C (stereo partly drawn) [Compound 45, N-(1,3-dimethylpyrazol-4-yl)sulfonyl-6-[3-[3,3,3-trifluoro-2-(hydroxymethyl)-2-methyl-propoxy]pyrazol-1-yl]-2-[(4S)-2,2,4-trimethylpyrrolidin-1-yl]pyridine-3-carboxamide] |
| 280 | 2 | 2.8 | 50 | 3.9 | 61 | 10500 |  | Cc1c(S(=O)(=O)NC(=O)c2ccc(-n3ccc(OCCC4(C(F)(F)F)CC4)n3)nc2N2C[C@@H](C)CC2(C)C)cnn1C [Compound 14, N-(1,5-dimethylpyrazol-4-yl)sulfonyl-6-[3-[2-[1-(trifluoromethyl)cyclopropyl]ethoxy]pyrazol-1-yl]-2-[(4S)-2,2,4-trimethylpyrrolidin-1-yl]pyridine-3-carboxamide] |
| 460 | 1 |  | 39 |  |  |  | metabolites of Compound 1 | C[C@@H]1CN(c2nc(-n3ccc(OCC(C)(C)C(F)(F)F)n3)ccc2C(=O)NS(=O)(=O)c2cn(C)nc2CO)C(C)(C)C1 [Compound 39, N-[3-(hydroxymethyl)-1-methyl-pyrazol-4-yl]sulfonyl-6-[3-(3,3,3-trifluoro-2,2-dimethyl-propoxy)pyrazol-1-yl]-2-[(4S)-2,2,4-trimethylpyrrolidin-1-yl]pyridine-3-carboxamide] |
| 170 | 4 | 1.4 | 13 | 4.9 | 21 | 3000 |  | Cc1nn(C)cc1S(=O)(=O)NC(=O)c1ccc(-n2ccc(OCC3C(C)(C)C3(C)C)n2)nc1N1C[C@@H](C)CC1(C)C [Compound 20, N-(1,3-dimethylpyrazol-4-yl)sulfonyl-6-[3-[(2,2,3,3-tetramethylcyclopropyl)methoxy]pyrazol-1-yl]-2-[(4S)-2,2,4-trimethylpyrrolidin-1-yl]pyridine-3-carboxamide] |
| 410 | 1 | 1.1 | 30 |  |  |  | metabolites of Compound 1 | Cc1n[nH]cc1S(=O)(=O)NC(=O)c1ccc(-n2ccc(OCC(C)(C)C(F)(F)F)n2)nc1N1C[C@@H](C)CC1(C)C [Compound 31, (S)—N-((3-methyl-1H-pyrazol-4-yl)sulfonyl)-6-(3-(3,3,3-trifluoro-2,2-dimethylpropoxy)-1H-pyrazol-1-yl)-2-(2,2,4-trimethylpyrrolidin-1-yl)nicotinamide] |
| 120 | 9 | 1.5 | 6 | 29.2 |  |  |  | C[C@@H]1CN(c2nc(-n3ccc(OCC(C)(C)C)n3)ccc2C(=O)NS(=O)(=O)c2ccccc2)C(C)(C)C1 [C, reference compound] |
| 30000 | 13 |  | 35 |  |  |  | metabolites of Compound 1 | C[C@H]1CC(C)(C)N2c3nc(-n4ccc(OCC(C)(C)C(F)(F)F)n4)ccc3C(=O)OC12 (stereo partly drawn) [Compound 57, (7S)-7,9,9-trimethyl-2-(3-(3,3,3-trifluoro-2,2-dimethylpropoxy)-1H-pyrazol-1-yl)-6a,7,8,9-tetrahydro-5H-pyrido[2,3-d]pyrrolo[2,1-b][1,3]oxazin-5-one] |
| 420 | 7 | 6.1 | 30 | 1.7 | 99 | 23400 |  | Cc1c(S(=O)(=O)NC(=O)c2ccc(-n3ccc(OCC4(C(F)(F)F)CC4)n3)nc2N2C[C@@H](C)CC2(C)C)cnn1C [Compound 9, N-(1,5-dimethylpyrazol-4-yl)sulfonyl-6-[3-[[1-(trifluoromethyl)cyclopropyl]methoxy]pyrazol-1-yl]-2-[(4S)-2,2,4-trimethylpyrrolidin-1-yl]pyridine-3-carboxamide] |
| 130 | 4 | 11.7 | 117 | 3 | 65 | 13400 |  | Cc1c(S(=O)(=O)NC(=O)c2ccc(-n3ccc(OCC(C)(C)C(F)(F)F)n3)nc2N2C[C@@H](C)CC2(C)C)cnn1C [Compound 13, N-(1,5-dimethylpyrazol-4-yl)sulfonyl-6-[3-(3,3,3-trifluoro-2,2-dimethyl-propoxy)pyrazol-1-yl]-2-[(4S)-2,2,4-trimethylpyrrolidin-1-yl]pyridine-3-carboxamide] |
| 520 | 1 | 3 | 0 | 6.7 | 47 | 3900 |  | Cc1c(S(=O)(=O)NC(=O)c2ccc(-n3ccc(OCC4C(C)(C)C4(C)C)n3)nc2N2C[C@@H](C)CC2(C)C)cnn1C [Compound 21, N-(1,5-dimethylpyrazol-4-yl)sulfonyl-6-[3-[(2,2,3,3-tetramethylcyclopropyl)methoxy]pyrazol-1-yl]-2-[(4S)-2,2,4-trimethylpyrrolidin-1-yl]pyridine-3-carboxamide] |

| SMILES | EC50 [1] [nM] | CYP3A4 Induction-PXR human PXR internal Max % Activity [2] [%] | Papp A→B [3] [×10⁻⁶ cm/s] | Hepatocyte clearance-Rat Rat hepatocytes CL pct_unchanged [4] [%] | RAT PLASMA-RAW IV-bolus CL_drg [5] [mL/min/kg] | RAT PLASMA-RAW PO % F_drg [5] [%] | AUC(0-inf) [5] [ng·h/mL] | metabolite identity [6] |
| --- | --- | --- | --- | --- | --- | --- | --- | --- |
| Cc1nn(C)cc1S(=O)(=O)N1C(=O)c2ccc(-n3ccc(OCC(C)(C)C(F)(F)F)n3)nc2N2C1[C@@H](C)CC2(C)C (stereo partly shown) [Compound 36, (75)-6-((1,3-dimethyl-1H-pyrazol-4-yl)sulfonyl)-7,9,9-trimethyl-2-(3-(3,3,3-trifluoro-2,2-dimethylpropoxy)-1H-pyrazol-1-yl)-6a,7,8,9-tetrahydropyrido[3,2-e]pyrrolo[1,2-a]pyrimidin-5(6H)-one] |  |  |  |  |  |  |  | metabolites of Compound 1 |
